Laboratory results taken from patent US20130336940A1, “MODIFIED PIG ISLETS FOR DIABETES TREATMENT” (UNIVERSITE CATHOLIQUE DE LOUVAIN, priority 2011, published 2013).

Key:
[1] = system: pigs; assay: Intravenous glucose tolerance test (IVGTT) in STZ-injected pigs; format: in vivo, pig
Protocol: […] STZ was solubilised in citrate buffer (25% v/v Na citrate, 23% v/v citric acid, 52% v/v H2O, pH 4.5) and filtered before injection in the external jugular vein (Dufrane, Transplantation, 2006).
Intravenous glucose tolerance tests (IVGTTs) were performed prior and 3 months after STZ injection under general anesthesia (induction by Zoletil (VIRBAC, Carros, France) IM at a dose of 6 mg/kg, maintained by intubation and inhalation of Enflurane (0-1.5%), nitrous oxide and oxygen. A catheter was introduced in the extern jugular vein and a solution of 0.5 g glucose/kg was injected. Blood samples were taken prior and 1, 3, 5, 10, 20, 30, 60, 90 minutes after complete injection of glucose. Glycaemia was measured on these samples (AccuChek, Roche, Brussels, Belgium) and serum was conserved for radioimmuno assay (RIA) quantifications (insulin, c-peptide).

[2] = system: pig pancreatic islets; assay: Histomorphometry of pancreatic islets prior to isolation (alpha/beta cells) after STZ; format: in vivo
Protocol: (§1) Five doses (0, 30, 50, 75, 100 mg/kg) of filter-sterilized Streptozotocin (STZ) (Sigma, Bornem, Belgium) were tested. STZ was solubilised in citrate buffer (25% v/v Na citrate, 23% v/v citric acid, 52% v/v H2O, pH 4.5) and filtered before injection in the external jugular vein (Dufrane, Transplantation, 2006).
The cellular composition of islets was determined by immunohistochemistry in small samples of human and pig pancreas taken during dissection of the gland. After overnight fixation in formol at room temperature, the small biopsies were embedded in paraffin and cut in 5 μm sections. These sections were thereafter deparaffinized, rehydrated and washed with a solution of Tris-HCl-Buffered solution 0.05 mol/L (TBS, pH 7.4). After inactivation of endogenous peroxidase by a 30-minute incubation in 0.3% H2O2, the sections were incubated with 10% normal goat serum (NGS) in TBS for 30 minutes. The sections were then incubated overnight at 4° C. with glucagon rabbit polyclonal antibody (BD Bioscience, Erembodegem, Belgium) diluted at 1:100. After washes in TBS, the slides were incubated for 30 minutes with anti-rabbit-IgG (1:500) and these antibodies detected by EnVision anti-rabbit system (Dako A/S, Glostrup, Denmark) for 1 hour at room temperature. […] The glucagon staining was followed by the detection of the β-cells by alkaline phosphatase anti-alkaline phosphatase system (APAAP). After washing, aspecific sites were again inhibited by a 30 minutes incubation with 10% normal goat serum (NGS) in TBS. The slides were thereafter incubated overnight with mouse insulin monoclonal antibody (Abcam, Cambridge, UK) diluted at 1:800.
Islets from human and pig pancreas were compared for cellular proportion and geometric distribution of α and β cells (centre/periphery). Following the islets size, 3 groups of 5 islets (50-99, 100-149 and 150-200 μm) were compared in native/modified young pig versus human pancreas.
The number of small β-cell clusters (≦3 insulin-immunoreactive cells) in the total area of the slide was also assessed. The number of these clusters was manually counted through the entire slide. The area of the slide was measured with ImageJ 1.43i software after capture of pictures of slides with a camera Nikon Coolscan 5000, accessory FH-G1) and calibrated with a stage micrometer to correspond to the number of pixels evidenced on the image analyser.

[3] = system: pig pancreas; assay: Pancreatic hormonal content for insulin/glucagon (RIA) after STZ; format: in vivo
Protocol: as §1
For pancreatic hormonal content, insulin and glucagon were first extracted from small biopsies of pancreas taken in the 3 zones (head, body, tail) before being quantified by radio immuno assay (RIA).
For the extraction, ˜1 g of pancreas was cut into small fragments (˜1-2 mm^3) and 5 mL of a solution composed of 75.75% CH3CH2OH, 24.22% H2O, 0.03% HCl were added. The following steps were performed with the samples kept on ice. Samples were mixed (Ultra-Turrax T25 [Janke & Kunkel IKA—Labortechnik, Staufen, Germany]) for 20 seconds 4 times and 5 mL of a solution of 75% CH3CH2OH, 22% H2O, 3% HCl were added to the mixture. The samples were then sonicated 4×20 seconds (Sonifier B 12 [Branson Sonic Power Company, Danbury, Conn., USA]) and centrifugated 10 minutes at 4° C. at 1500 rpm. The first supernatant formed was removed and kept at −20° C. 2 mL of a solution of 75% CH3CH2OH, 23.5% H2O, 1.5% HCl were added to the precipitate and a second step of sonication was performed. The samples were then kept at −20° C. overnight. After a step of centrifugation 10 minutes at 4° C. at 1500 rpm, the second supernatant was removed and kept at −20° C. Thereafter, 2 mL of a solution of 75% CH3CH2OH, 23.5% H2O, 1.5% HCl were added to the precipitate and the mixture was sonicated and centrifuged 10 minutes at 4° C. at 1500 rpm and the third supernatant removed. The three supernatants were then pooled and constituted the pancreas extract. […] The supernatants were immediately removed and the contents of insulin and glucagon were determined by a Wallac Wizard 1470 Automatic gamma counter (GMI Inc, Ramsey, Minn., USA) for 1 minute.

[4] = system: monkeys; settings: cited from earlier work
[5] = system: hamsters; settings: after STZ treatment; cited from earlier work
[6] = STZ 50 mg/kg, by linear regression
[7] = STZ 75 mg/kg, islets of 50-100 μm, prior to isolation

With `CN(N=O)C(=O)N[C@H]1C(O)O[C@H](CO)[C@@H](O)[C@@H]1O` (mixture of isomers) [STZ, Streptozotocin] the “AUC for IVGTT curves” value ([1]; STZ 150 mg/kg) was “significant higher AUC”, the “glucose metabolism (IVGTT curves)” value ([1]; STZ 30, 50, 75 and 100 mg/kg, single injection, IVGTT 3 months after, vs control animals) was “not sufficient to induce dysfunction in glucose metabolism” and the “glucose uptake (IVGTT)” value ([1]; STZ 30-50 mg/kg) was “did not affect glucose uptake”. For the same compound, the “theoretical increase in the proportion of α cells” value [2, 6] was 30%, the “theoretical reduction of the proportion of β cells” value [2, 6] was 30% and the “number of alpha cells per islet in comparison to humans” value [2, 7] was “higher number of alpha cells”. The “number of beta cells per islet in comparison to humans” value [2, 7] was “lower number of beta cell”, the “number of beta cells per islet in comparison to humans” value ([2]; STZ 100 mg/kg, islets of 50-100 μm, prior to isolation) was “lower number of beta cells” and the “number of alpha cells per islet in comparison to humans” value ([2]; STZ 30-50 mg/kg, islets of 50-100 μm and 150-200 μm, prior to isolation) was “lower number of alpha cells per islet”. The “alpha cell proportion in comparison to human islets” value ([2]; STZ 30-50 mg/kg, large islets (150-200 μm), prior to isolation) was “lower alpha cell proportion”, the “proportion of alpha cells per islet in comparison to humans” value ([2]; STZ 75-100 mg/kg, each islet size, prior to isolation) was “higher proportion of alpha cells” and the “beta cell regeneration (from duct or exocrine tissue)” value ([2]; STZ-treated pig pancreas) was “No sign of beta cell regeneration”. For the same compound, the “number of α and β cells per islet” value ([2]; from doses of 30 mg/kg STZ, prior to isolation) was “increased significantly”, the “theoretical reduction of the pancreatic insulin content” value ([3]; STZ 30 mg/kg, by linear regression) was 30% and the “pancreatic glucagon content, humans vs treated pigs” value ([3]; STZ 30/50/75 mg/kg, 3 months post-STZ treatment) was “higher in humans”. The pancreatic insulin content ([3]; STZ 75-100 mg/kg) was “significant reduction”, the “number of α-cells” value ([4]; after STZ treatment, monkeys) was “increased” and the “increase of glucagon mass” value ([4]; after long-term diabetes (>53 days), treated primates) was roughly 89%. For the same compound, the glucagon content [5] was “increased”.
